These results are taken from paper PMC4047164 (Biochimica et biophysica acta, 2014).

One may read the MIC as the least concentration at which growth counts as inhibited. A high value points to a less susceptible organism. A word on the inhibition: it is the drop in the measured response relative to a control, in per cent.

≈ marks a conversion by molar mass, not a printed value. Where two headings read alike, the source gives them in different places.

For test [1], the system named is S. aureus cells. Description: Membrane potential of intact cells by DisC3. In kind it is cell-based.
Test [2] relates to S. aureus. Nature of the test: Drug susceptibility determination. It is filed as cell-based. Particulars: Staphylococcus aureus, 20 h.
For test [3], the target named is T1, NdhC (Staphylococcus aureus, UniProt Q2YWP9). Description: Inhibition of purified NdhC NADH dehydrogenase activity with DMN in detergent. It is filed as biochemical, S. aureus. Particulars: read-out: % of Inhibition by 50 μM phenothiazines, NdhC, DMN.
Test [4] concerns S. aureus. Particulars: cited from earlier work.
Test [5] concerns inverted membrane vesicles from E. coli. In kind it is biochemical.
For test [6] the test system is unchanged. It is filed as biochemical. The settings on record: NADH-energized vesicles.
For test [7], the target named is T1, NdhC. Description: biochemical. Also noted: species or system S. aureus. Particulars: read-out: % of Inhibition by 50 μM phenothiazines, NdhC, Q8.
For test [8], the target named is T2, NdhF (Staphylococcus aureus, UniProt Q2FZW0). Nature of the test: biochemical. The settings on record: read-out: % of Inhibition by 50 μM phenothiazines, NdhF, DMN.
Test [9] has as its target T2, NdhF. Nature of the test: biochemical. The settings on record: read-out: % of Inhibition by 50 μM phenothiazines, NdhF, Q8.
Test [10] deals with S. aureus membranes. Nature of the test: NADH-driven respiration. It is filed as biochemical. The settings on record: for Inhibition of NADH-dependent oxygen consumption: 50 μM compound, membranes ∼ 200 μg/ml.
The test system of test [11] is isolated rat liver mitochondria. Particulars: cited from earlier work.
The mark [12] stands for this setting: control agents, Figure S5, concentration not given.
Setting [13] is: Figure 5 legend, concentration not given.

T1 sequence (Q2YWP9 whole entry): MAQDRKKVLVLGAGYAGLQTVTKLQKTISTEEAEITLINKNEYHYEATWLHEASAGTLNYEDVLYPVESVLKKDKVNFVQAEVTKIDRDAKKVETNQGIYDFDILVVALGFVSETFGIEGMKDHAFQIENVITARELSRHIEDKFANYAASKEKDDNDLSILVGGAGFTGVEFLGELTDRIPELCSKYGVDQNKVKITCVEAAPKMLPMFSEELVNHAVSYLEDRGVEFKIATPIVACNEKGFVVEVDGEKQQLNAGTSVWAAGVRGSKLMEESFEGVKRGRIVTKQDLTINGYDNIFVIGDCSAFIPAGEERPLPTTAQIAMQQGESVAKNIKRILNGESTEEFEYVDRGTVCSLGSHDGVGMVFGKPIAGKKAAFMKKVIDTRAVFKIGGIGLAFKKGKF

For the compound `N#CC(C#N)=NNc1cccc(Cl)c1` [CCCP], the “Effect on membrane potential (DisC3(5) fluorescence)” value in [1] (1 μM CCCP, validation control) is recorded as “rapid collapse of the membrane potential”.
As to `CN(C)CCCN1c2ccccc2Sc2ccc(Cl)cc21` [CPZ, Chlorpromazine], the MIC in test [2] was found to be 170 ± 15 µM (≈ 54.2 µg/mL). For the same compound, the inhibition at 50 µM in test [3] was 73 ± 8%. Also, the “reported MIC values for inhibition of growth” value in [4] is 90 to 125 µM.
As to `C(=NC1CCCCC1)=NC1CCCCC1` [DCCD], the “Effect on pH gradient (ACMA fluorescence)” value (“Effect on pH gradient” for short) in test [5] (setting [12]) is given as “collapse of the pH gradient”.
As to `CC(C)(C)c1cc(C=C(C#N)C#N)cc(C(C)(C)C)c1O` [SF6847], the “Effect on pH gradient” value in test [5] (setting [12]) is given as “collapse of the pH gradient”. Moreover, the “Effect on membrane potential (Oxonol VI fluorescence)” value in [6] (setting [13]) is “dissipation of the membrane potential”.
Turning to `CN1CCN(CCCN2c3ccccc3Sc3ccc(C(F)(F)F)cc32)CC1` [TPZ, Trifluoperazine], in [2], the MIC was determined as 70 ± 10 µM (≈ 28.5 µg/mL). In addition, the inhibition at 50 µM in test [3] was 54 ± 6%; in test [7] it was 80 ± 10%; in test [8], 0%; in [9] it was 0%. Moreover, the “reported MIC values for inhibition of growth” value in [4] is 40 to 60 µM. Also, the “NADH-driven respiration in presence of 50 μM TPZ” value in [10] (50 μM TPZ, uninhibited activity 659 ± 28) is 8 ± 1 μmole O2 mg^-1 protein s^-1. In test [10], the “Inhibition of NADH-dependent oxygen consumption” value was “fully inhibited”. For the same compound, the IC50 in test [10] (read-out: IC50, respiration of S. aureus membranes, NADH as electron donor) amounted to 18.5 ± 3 µM.
`CSc1ccc2c(c1)N(CCC1CCCCN1C)c1ccccc1S2` (stereo not shown) [TZ, Thioridazine] gave an MIC in test [2] of 70 ± 9 µM (≈ 25.9 µg/mL). Besides, the “Effect on pH gradient” value in [5] (3 μM TZ, gradient generated by the ATPase or by succinate-driven respiration) was “completely collapse the pH gradient”. Further, the “reported MIC values for inhibition of growth” value in [4] was 40 to 60 µM. The Uncoupler activity result in test [11] is “weak uncoupler of oxidative phosphorylation”. Also, the “Effect on membrane potential (DisC3(5) fluorescence)” value in test [1] (50 μM TZ) is reported as “rapid collapse of the membrane potential”; in test [1] (different TZ concentrations, immediate, concentration-dependent (Figure 3A)), “collapse of the membrane potential”. The “Inhibition of NADH-dependent oxygen consumption” value in [10] was “fully inhibited”. The “Effect on membrane potential (Oxonol VI fluorescence)” value in [6] (10 μM TZ) is on record as “completely dissipated”; in test [6] (setting [13]), “dissipation of the membrane potential”.
